# Read-outs that look alike come from different tables or passages of the source.
# Experiments:
# Assay type in all cases: cell-based
# [1] = system: Escherichia coli NIHJ; test: Minimum Inhibitory Concentration, Escherichia coli NIHJ; conditions: Escherichia coli NIHJ; read-out: Minimum Inhibitory Concentration
# Method: (§1) anti-microbial activity tests were carried out on the compounds obtained in the Examples.
# [2] = system: Enterobacter aerogeneus No. 75; test: Minimum Inhibitory Concentration, Enterobacter aerogeneus No. 75; conditions: Enterobacter aerogeneus No. 75; read-out: Minimum Inhibitory Concentration
# Method: as §1
# [3] = system: Klebsiella pneumoniae 602; test: Minimum Inhibitory Concentration, Klebsiella pneumoniae 602; conditions: Klebsiella pneumoniae, 602, Klebsiella pneumoniae 602; read-out: Minimum Inhibitory Concentration
# Method: as §1
# [4] = system: Staphylococcus aureus 209 P; test: Minimum Inhibitory Concentration, Staphylococcus aureus 209 P; conditions: Staphylococcus aureus 209 P; read-out: Minimum Inhibitory Concentration
# Method: as §1
# [5] = system: Staphylococcus aureus FS 289; test: Minimum Inhibitory Concentration, Staphylococcus aureus FS 289
# Method: as §1
# *Staphylococcus aureus FS 289: strain resistant to penicillin
# [6] = system: Proteus vulgaris HX 19; test: Minimum Inhibitory Concentration, Proteus vulgaris HX 19; conditions: HX19; Proteus vulgaris HX 19; read-out: Minimum Inhibitory Concentration
# Method: as §1
# [7] = system: Serratia No. 72; test: Minimum Inhibitory Concentration, Serratia No. 72
# Method: as §1
# [8] = system: Pseudomonas aeruginosa 104; test: Minimum Inhibitory Concentration, Pseudomonas aeruginosa 104; conditions: Pseudomonas aeruginosa 104; read-out: Minimum Inhibitory Concentration
# Method: as §1
# [9] = FS289, Staphylococcus aureus FS 289, strain resistant to penicillin, read-out: Minimum Inhibitory Concentration
SMILES,MIC [1],MIC [2],MIC [3],MIC [4],"MIC [5, 9]",MIC [6],MIC [7],MIC [8],"MIC ([5]; Staphylococcus aureus, FS289, read-out: Minimum Inhibitory Concentration)"
O=C(O)C1=C(CSc2nnc(CO)s2)CSC2C(NC(=O)C(NC(=O)c3cnc4cncnc4c3O)c3cccc(O)c3)C(=O)N12 (centres unmarked) [Example 155],3.13 µg/mL,6.25 µg/mL,6.25 µg/mL,0.78 µg/mL,12.5 µg/mL,0.78 µg/mL,12.5 µg/mL,3.13 µg/mL,–
CSc1ncc2c(O)c(C(=O)NC(C(=O)NC3C(=O)N4C(C(=O)O)=C(CSc5nnnn5C)CSC34)c3cccc(O)c3)cnc2n1 (centres unmarked) [Example 162],12.5 µg/mL,25 µg/mL,6.25 µg/mL,1.56 µg/mL,12.5 µg/mL,0.78 µg/mL,50 µg/mL,6.25 µg/mL,–
Cn1nnnc1SCC1=C(C(=O)O)N2C(=O)C(NC(=O)C(NC(=O)c3cnccc3O)c3ccc(CO)cc3)C2SC1 (centres unmarked) [Example 91],12.5 µg/mL,25 µg/mL,12.5 µg/mL,0.78 µg/mL,6.25 µg/mL,0.39 µg/mL,50 µg/mL,12.5 µg/mL,–
O=C(O)C1=C(CSc2ccc(O)nn2)CSC2C(NC(=O)C(NC(=O)c3cnccc3O)c3ccc(CO)cc3)C(=O)N12 (centres unmarked) [Example 111],12.5 µg/mL,12.5 µg/mL,6.25 µg/mL,0.78 µg/mL,6.25 µg/mL,0.39 µg/mL,100 µg/mL,12.5 µg/mL,–
NC(=O)Nc1cccc([C@@H](NC(=O)c2cnc3cccnc3c2O)C(=O)N[C@@H]2C(=O)N3C(C(=O)O)=C(CSc4nnc(CO)s4)CS[C@H]23)c1 [Example 36],3.13 µg/mL,6.25 µg/mL,1.56 µg/mL,0.78 µg/mL,6.25 µg/mL,0.2 µg/mL,12.5 µg/mL,3.13 µg/mL,–
CN(C)c1ccc2ncc(C(=O)N[C@@H](C(=O)N[C@@H]3C(=O)N4C(C(=O)O)=C(CSc5cnn[nH]5)CS[C@H]34)c3ccc(NC(N)=O)cc3)c(O)c2n1 [Example 27],3.13 µg/mL,3.13 µg/mL,1.56 µg/mL,1.56 µg/mL,–,0.2 µg/mL,12.5 µg/mL,3.13 µg/mL,6.25 µg/mL
"CC(=O)OCC1=C(C(=O)O)N2C(=O)[C@@H](NC(=O)[C@H](N)c3ccccc3)[C@H]2SC1 [CEG, reference compound]",12.5 µg/mL,50 µg/mL,3.13 µg/mL,1.56 µg/mL,12.5 µg/mL,12.5 µg/mL,> 200 µg/mL,> 200 µg/mL,–
Nc1ccc(C(NC(=O)c2cnc3cccnc3c2O)C(=O)NC2C(=O)N3C(C(=O)O)=C(CSc4nnc(CO)s4)CSC23)cc1 (centres unmarked) [Example 81],1.56 µg/mL,3.13 µg/mL,3.13 µg/mL,1.56 µg/mL,6.25 µg/mL,0.1 µg/mL,12.5 µg/mL,3.13 µg/mL,–
CSc1cnc2c(O)c(C(=O)NC(C(=O)NC3C(=O)N4C(C(=O)O)=C(CSc5nnnn5C)CSC34)c3cccc(NC(N)=O)c3)cnc2n1 (centres unmarked) [Example 41],3.13 µg/mL,6.25 µg/mL,3.13 µg/mL,1.56 µg/mL,6.25 µg/mL,0.2 µg/mL,12.5 µg/mL,6.25 µg/mL,–
COc1ccc2ncc(C(=O)NC(C(=O)NC3C(=O)N4C(C(=O)O)=C(CSc5nnnn5C)CSC34)c3cccc(N)c3)c(O)c2n1 (centres unmarked) [Example 67],1.56 µg/mL,3.13 µg/mL,3.13 µg/mL,0.78 µg/mL,3.13 µg/mL,0.1 µg/mL,12.5 µg/mL,3.13 µg/mL,–
NC(=O)Nc1cccc(C(NC(=O)c2cnccc2O)C(=O)NC2C(=O)N3C(C(=O)O)=C(CSc4ccc(O)nn4)CSC23)c1 (centres unmarked) [Example 46],12.5 µg/mL,12.5 µg/mL,3.13 µg/mL,0.78 µg/mL,6.25 µg/mL,0.39 µg/mL,50 µg/mL,12.5 µg/mL,–
CC(=O)OCC1=C(C(=O)O)N2C(=O)C(NC(=O)C(NC(=O)c3cnccc3O)c3cccc(O)c3)C2SC1 (centres unmarked) [Example 114],12.5 µg/mL,25 µg/mL,12.5 µg/mL,0.39 µg/mL,6.25 µg/mL,0.39 µg/mL,> 200 µg/mL,6.25 µg/mL,–
O=C(O)C1=C(CSc2ccc(O)nn2)CSC2C(NC(=O)C(NC(=O)c3cnc4cccnc4c3O)c3ccc(CO)cc3)C(=O)N12 (centres unmarked) [Example 102],3.13 µg/mL,12.5 µg/mL,3.13 µg/mL,1.56 µg/mL,6.25 µg/mL,0.39 µg/mL,25 µg/mL,6.25 µg/mL,–
